Patent publication US12404241B2 (Celgene Corporation, priority 2018, dated 2025)
Where a name gives a salt, the structure may show the parent alone.

Biological target: T1, AR (Homo sapiens, UniProt P10275)
T1 construct: endogenous in cells; host or cells: VCaP cells
T1 sequence (P10275 1-920): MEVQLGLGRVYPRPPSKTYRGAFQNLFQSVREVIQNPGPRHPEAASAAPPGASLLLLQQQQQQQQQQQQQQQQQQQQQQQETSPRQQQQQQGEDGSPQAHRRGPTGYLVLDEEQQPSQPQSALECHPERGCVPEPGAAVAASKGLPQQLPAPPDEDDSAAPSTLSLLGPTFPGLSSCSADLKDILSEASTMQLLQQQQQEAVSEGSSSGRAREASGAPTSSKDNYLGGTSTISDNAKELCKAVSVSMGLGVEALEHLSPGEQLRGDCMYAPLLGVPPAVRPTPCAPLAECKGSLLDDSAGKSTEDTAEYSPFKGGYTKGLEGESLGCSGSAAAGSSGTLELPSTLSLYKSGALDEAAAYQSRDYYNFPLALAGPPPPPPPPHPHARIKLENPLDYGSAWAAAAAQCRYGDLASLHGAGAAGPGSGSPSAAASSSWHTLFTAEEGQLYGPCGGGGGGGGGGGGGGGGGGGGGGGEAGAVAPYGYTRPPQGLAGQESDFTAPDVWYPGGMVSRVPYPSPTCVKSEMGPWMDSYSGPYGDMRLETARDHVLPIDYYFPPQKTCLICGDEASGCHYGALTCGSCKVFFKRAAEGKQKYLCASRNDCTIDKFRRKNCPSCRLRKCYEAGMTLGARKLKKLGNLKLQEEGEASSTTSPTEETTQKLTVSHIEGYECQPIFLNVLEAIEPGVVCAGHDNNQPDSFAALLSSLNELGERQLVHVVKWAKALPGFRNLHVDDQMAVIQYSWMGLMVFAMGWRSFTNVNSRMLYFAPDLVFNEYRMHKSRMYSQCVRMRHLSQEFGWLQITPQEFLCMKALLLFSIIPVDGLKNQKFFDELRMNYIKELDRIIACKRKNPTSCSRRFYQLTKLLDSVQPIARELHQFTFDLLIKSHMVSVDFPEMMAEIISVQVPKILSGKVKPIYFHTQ
Experiment: VCAP AR Degradation Assay
Assay type: cell-based
Conditions: for Y (AR degradation efficiency, % of DMSO control): class symbols *; for DC50: class symbols A-C, read-out: DC50
Method in brief: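 24 h, 37 °C, VCaP (DMEM/8% FBS), 10-pt 1:3 dilutions from 5 μM final top, 0.1% DMSO ctrl. Lysis on ice/4 °C 1 h; total AR by sandwich ELISA, normalized to DMSO. 4PL fit → DC50, EC50, Y (min AR level).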

SMILES | Y (AR degradation efficiency, % of DMSO control) | DC50
CC(C)c1cc(N2C(=S)N(c3ccc(C#N)c(Cl)c3)C(=O)C2(C)C)ccc1OCCN1C[C@@H](C)N(CC(=O)Nc2cc(C#N)cc(NC3CCC(=O)NC3=O)c2)[C@@H](C)C1 (stereo partly drawn) [Example 250, 2-((2S,6R)-4-(2-(4-(3-(3-chloro-4-cyanophenyl)-5,5-dimethyl-4-oxo-2-thioxoimidazolidin-1-yl)-2-isopropylphenoxy)ethyl)-2,6-dimethylpiperazin-1-yl)-N-(3-cyano-5-(2,6-dioxopiperidin-3-ylamino)phenyl)acetamide] | * (0<Y<=25%) | < 100 nM
C[C@@H]1CN(CCOc2ccc(N3C(=S)N(c4cnc(C#N)c(C(F)(F)F)c4)C(=O)C3(C)C)cc2CCF)CCN1CC(=O)Nc1cc(Cl)cc(NC2CCC(=O)NC2=O)c1 (stereo partly drawn) [Example 140, N-(3-chloro-5-(2,6-dioxopiperidin-3-ylamino)phenyl)-2-((R)-4-(2-(4-(3-(6-cyano-5-(trifluoromethyl)pyridin-3-yl)-5,5-dimethyl-4-oxo-2-thioxoimidazolidin-1-yl)-2-(2-fluoroethyl)phenoxy)ethyl)-2-methylpiperazin-1-yl)acetamide] | * (0<Y<=25%) | < 100 nM
CCc1cc(N2C(=S)N(c3ccc(C#N)c(C(F)(F)F)c3)C(=O)C2(C)C)ccc1OCCN1CCN([C@@H](C)C(=O)Nc2cccc(NC3CCC(=O)NC3=O)c2)CC1 (stereo partly drawn) [Example 57, (2S)-2-(4-(2-(4-(3-(4-cyano-3-(trifluoromethyl)phenyl)-5,5-dimethyl-4-oxo-2-thioxoimidazolidin-1-yl)-2-ethylphenoxy)ethyl)piperazin-1-yl)-N-(3-(2,6-dioxopiperidin-3-ylamino)phenyl)propanamide] | * (0<Y<=25%) | < 100 nM
CCc1cc(N2C(=S)N(c3ccc(C#N)c(C(F)(F)F)c3)C(=O)C2(C)C)ccc1OCCN1C[C@@H](C)N(CC(=O)Nc2cccc(N[C@@H]3CCC(=O)NC3=O)c2)[C@@H](C)C1 [Example 286, 2-((2R,6S)-4-(2-(4-(3-(4-cyano-3-(trifluoromethyl)phenyl)-5,5-dimethyl-4-oxo-2-thioxoimidazolidin-1-yl)-2-ethylphenoxy)ethyl)-2,6-dimethylpiperazin-1-yl)-N-(3-((R)-2,6-dioxopiperidin-3-ylamino)phenyl)acetamide] | * (0<Y<=25%) | < 100 nM
N#Cc1ccc(N2C(=O)C3(CCC3)N(c3ccc(OCCN4CCN(CC(=O)Nc5cccc(NC6CCC(=O)NC6=O)c5)CC4)c(F)c3)C2=S)cc1C(F)(F)F (stereo not drawn) [Example 8, hydrochloride] | ** (25%<Y<=35%) | < 100 nM
CCc1cc(N2C(=S)N(c3ccc(C#N)c(C(F)(F)F)c3)C(=O)C2(C)C)ccc1OCCN1CCN(CC(=O)Nc2cccc(NC3CCC(=O)NC3=O)c2)CC1 (stereo not drawn) [Example 10, hydrochloride] | * (0<Y<=25%) | < 100 nM
CC(C)c1cc(N2C(=S)N(c3ccc(C#N)c(Cl)c3)C(=O)C2(C)C)ccc1OCCN1C[C@@H](C)N(CC(=O)Nc2cccc(NC3CCC(=O)NC3=O)c2)C[C@H]1C (stereo partly drawn) [Example 207, 2-((2R,5R)-4-(2-(4-(3-(3-chloro-4-cyanophenyl)-5,5-dimethyl-4-oxo-2-thioxoimidazolidin-1-yl)-2-isopropylphenoxy)ethyl)-2,5-dimethylpiperazin-1-yl)-N-(3-(2,6-dioxopiperidin-3-ylamino)phenyl)acetamide] | ** (25%<Y<=35%) | 100 to 500 nM
Cc1cc(OCCN2CCN(CC(=O)Nc3cccc(NC4CCC(=O)NC4=O)c3)CC2)c(F)cc1N1C(=S)N(c2ccc(C#N)c(C(F)(F)F)c2)C(=O)C1(C)C (stereo not drawn) [Example 13, hydrochloride] | *** (35%<Y<50%) | < 100 nM
CC1(C)C(=O)N(c2ccc(C#N)c(C(F)(F)F)c2)C(=S)N1c1ccc(OCCN2CCN(CC(=O)Nc3cc(Cl)cc(NC4CCC(=O)NC4=O)c3)CC2)c(C2CC2)c1 (stereo not drawn) [Example 30, hydrochloride] | * (0<Y<=25%) | < 100 nM
CC1(C)C(=O)N(c2cnc(C#N)c(C(F)(F)F)c2)C(=S)N1c1ccc(OCCN2CCN(CC(=O)Nc3cc(Cl)cc(NC4CCC(=O)NC4=O)c3)CC2)cc1 (stereo not drawn) [Example 24, 2-(4-(2-(4-(3-(6-cyano-5-(trifluoromethyl)pyridin-3-yl)-5,5-dimethyl-4-oxo-2-thioxoimidazolidin-1-yl)-2-ethylphenoxy)ethyl)-2,2-dimethylpiperazin-1-yl)-N-(3-((2,6-dioxopiperidin-3-yl)amino)-5-fluorophenyl)acetamide hydrochoride] | * (0<Y<=25%) | < 100 nM
CCc1cc(N2C(=S)N(c3ccc(C#N)c(C(F)(F)F)c3)C(=O)C2(C)C)ccc1OCCN1CCN(CC(=O)Nc2cccc(N[C@@H]3CCC(=O)NC3=O)c2)CC1 [Example 28, hydrochloride] | * (0<Y<=25%) | < 100 nM
CCc1cc(N2C(=S)N(c3cnc(C#N)c(C(F)(F)F)c3)C(=O)C2(C)C)ccc1OCCN1CCN([C@H](C)C(=O)Nc2cccc(NC3CCC(=O)NC3=O)c2)CC1 (stereo partly drawn) [Example 119, (2R)-2-(4-(2-(4-(3-(6-cyano-5-(trifluoromethyl)pyridin-3-yl)-5,5-dimethyl-4-oxo-2-thioxoimidazolidin-1-yl)-2-ethylphenoxy)ethyl)piperazin-1-yl)-N-(3-(2,6-dioxopiperidin-3-ylamino)phenyl)propanamide] | * (0<Y<=25%) | < 100 nM
CCc1cc(N2C(=S)N(c3ccc(C#N)c(C(F)(F)F)c3)C(=O)C2(C)C)ccc1OCCN1CCN(CC(=O)Nc2cccc(N[C@@H]3CCC(=O)NC3=O)c2)[C@H](C)C1 [Example 112, 2-((R)-4-(2-(4-(3-(4-cyano-3-(trifluoromethyl)phenyl)-5,5-dimethyl-4-oxo-2-thioxoimidazolidin-1-yl)-2-ethylphenoxy)ethyl)-2-methylpiperazin-1-yl)-N-(3-((R)-2,6-dioxopiperidin-3-ylamino)phenyl)acetamide] | * (0<Y<=25%) | < 100 nM
CCc1cc(N2C(=S)N(c3ccc(C#N)c(C(F)(F)F)c3)C(=O)C2(C)C)ccc1OCCN1CCN(CC(=O)Nc2cccc(NC3CCC(=O)NC3=O)c2Cl)CC1 (stereo not drawn) [Example 35, hydrochloride] | ** (25%<Y<=35%) | 100 to 500 nM
CCc1cc(N2C(=S)N(c3cnc(C#N)c(C(F)(F)F)c3)C(=O)C2(C)C)ccc1OCCN1C[C@H]2CC[C@@H]1CN2CC(=O)Nc1cc(Cl)cc(NC2CCC(=O)NC2=O)c1 (stereo partly drawn) [Example 184, N-(3-chloro-5-(2,6-dioxopiperidin-3-ylamino)phenyl)-2-((1R,4R)-5-(2-(4-(3-(6-cyano-5-(trifluoromethyl)pyridin-3-yl)-5,5-dimethyl-4-oxo-2-thioxoimidazolidin-1-yl)-2-ethylphenoxy)ethyl)-2,5-diazabicyclo[2.2.2]octan-2-yl)acetamide] | ** (25%<Y<=35%) | 100 to 500 nM
